Data published in ChEMBL document CHEMBL1157917, “Structure-based rational design, synthesis and antifungal activity of oxime-containing azole derivatives” (2010).
Converted amounts (≈) assume the structure as drawn.

Assays:
Assay type in all cases: functional
Aspergillus fumigatus = assay: Antifungal activity against Aspergillus fumigatus after 7 days by serial dilution method; settings: 168 h
Trichophyton rubrum = assay: Antifungal activity against Trichophyton rubrum after 7 days by serial dilution method; settings: 168 h
Pichia kudriavzevii = assay: Antifungal activity against Candida krusei after 24 hrs by serial dilution method
Candida albicans = assay: Antifungal activity against Candida albicans after 24 hrs by serial dilution method
Candida parapsilosis = assay: Antifungal activity against Candida parapsilosis after 24 hrs by serial dilution method; settings: Lodderomyces parapsilosis
Candida tropicalis = assay: Antifungal activity against Candida tropicalis after 24 hrs by serial dilution method
Cryptococcus neoformans = assay: Antifungal activity against Cryptococcus neoformans after 72 hrs by serial dilution method

| SMILES | MIC80 (Aspergillus fumigatus) | MIC80 (Trichophyton rubrum) | MIC80 (Pichia kudriavzevii) | MIC80 (Candida albicans) | MIC80 (Candida parapsilosis) | MIC80 (Candida tropicalis) | MIC80 (Cryptococcus neoformans) |
| --- | --- | --- | --- | --- | --- | --- | --- |
| OC(CN1CCC(=NOCc2ccc(Cl)cc2)CC1)(Cn1cncn1)c1ccc(F)cc1F (racemic) | 1 µg/mL (≈ 2.1 µM) | 0.0625 µg/mL (≈ 0.131 µM) | 0.25 µg/mL (≈ 0.525 µM) | 0.0625 µg/mL (≈ 0.131 µM) | 0.016 µg/mL (≈ 0.0336 µM) | 0.0625 µg/mL (≈ 0.131 µM) | 0.001 µg/mL (≈ 0.0021 µM) |
| Cc1cccc(CON=C2CCN(CC(O)(Cn3cncn3)c3ccc(F)cc3F)CC2)c1 (racemic) | 64 µg/mL (≈ 141 µM) | 16 µg/mL (≈ 35.1 µM) | 64 µg/mL (≈ 141 µM) | 16 µg/mL (≈ 35.1 µM) | 64 µg/mL (≈ 141 µM) | 64 µg/mL (≈ 141 µM) | 16 µg/mL (≈ 35.1 µM) |
| CCc1ccc(CON=C2CCN(CC(O)(Cn3cncn3)c3ccc(F)cc3F)CC2)cc1 (racemic) | 64 µg/mL (≈ 136 µM) | 16 µg/mL (≈ 34.1 µM) | 64 µg/mL (≈ 136 µM) | 16 µg/mL (≈ 34.1 µM) | 64 µg/mL (≈ 136 µM) | 64 µg/mL (≈ 136 µM) | 16 µg/mL (≈ 34.1 µM) |
| C[C@@H](c1ncncc1F)[C@](O)(Cn1cncn1)c1ccc(F)cc1F [VORICONAZOLE] | 0.0625 µg/mL (≈ 0.179 µM) | 0.004 µg/mL (≈ 0.0115 µM) | 0.016 µg/mL (≈ 0.0458 µM) | 0.004 µg/mL (≈ 0.0115 µM) | 0.004 µg/mL (≈ 0.0115 µM) | 0.004 µg/mL (≈ 0.0115 µM) | 0.004 µg/mL (≈ 0.0115 µM) |
| O=[N+]([O-])c1ccc(CON=C2CCN(CC(O)(Cn3cncn3)c3ccc(F)cc3F)CC2)cc1 (racemic) | 1 µg/mL (≈ 2.06 µM) | 0.0625 µg/mL (≈ 0.128 µM) | 0.25 µg/mL (≈ 0.514 µM) | 0.016 µg/mL (≈ 0.0329 µM) | 0.004 µg/mL (≈ 0.00822 µM) | 0.004 µg/mL (≈ 0.00822 µM) | 0.016 µg/mL (≈ 0.0329 µM) |
| N#Cc1ccc(CON=C2CCN(CC(O)(Cn3cncn3)c3ccc(F)cc3F)CC2)cc1 (racemic) | 1 µg/mL (≈ 2.14 µM) | 0.0625 µg/mL (≈ 0.134 µM) | 0.25 µg/mL (≈ 0.536 µM) | 0.0625 µg/mL (≈ 0.134 µM) | 0.0625 µg/mL (≈ 0.134 µM) | 0.0625 µg/mL (≈ 0.134 µM) | 0.016 µg/mL (≈ 0.0343 µM) |
| OC(CN1CCC(=NOCc2cccc(F)c2)CC1)(Cn1cncn1)c1ccc(F)cc1F (racemic) | 0.25 µg/mL (≈ 0.544 µM) | 0.0625 µg/mL (≈ 0.136 µM) | 0.25 µg/mL (≈ 0.544 µM) | 0.016 µg/mL (≈ 0.0348 µM) | 0.016 µg/mL (≈ 0.0348 µM) | 0.016 µg/mL (≈ 0.0348 µM) | 0.016 µg/mL (≈ 0.0348 µM) |
| COc1cccc(CON=C2CCN(CC(O)(Cn3cncn3)c3ccc(F)cc3F)CC2)c1 (racemic) | 64 µg/mL (≈ 136 µM) | 16 µg/mL (≈ 33.9 µM) | 64 µg/mL (≈ 136 µM) | 16 µg/mL (≈ 33.9 µM) | 64 µg/mL (≈ 136 µM) | 64 µg/mL (≈ 136 µM) | 16 µg/mL (≈ 33.9 µM) |
| OC(CN1CCC(=NOCc2ccccc2Br)CC1)(Cn1cncn1)c1ccc(F)cc1F (racemic) | 1 µg/mL (≈ 1.92 µM) | 0.0625 µg/mL (≈ 0.12 µM) | 0.25 µg/mL (≈ 0.48 µM) | 0.016 µg/mL (≈ 0.0307 µM) | 0.0625 µg/mL (≈ 0.12 µM) | 0.004 µg/mL (≈ 0.00769 µM) | 0.004 µg/mL (≈ 0.00769 µM) |
| OC(CN1CCC(=NOCc2ccc(Cl)cc2Cl)CC1)(Cn1cncn1)c1ccc(F)cc1F (racemic) | 4 µg/mL (≈ 7.84 µM) | 0.0625 µg/mL (≈ 0.122 µM) | 0.25 µg/mL (≈ 0.49 µM) | 0.016 µg/mL (≈ 0.0313 µM) | 0.016 µg/mL (≈ 0.0313 µM) | 0.016 µg/mL (≈ 0.0313 µM) | 0.016 µg/mL (≈ 0.0313 µM) |
| OC(CN1CCC(=NOCc2ccc(Cl)c(Cl)c2)CC1)(Cn1cncn1)c1ccc(F)cc1F (racemic) | 1 µg/mL (≈ 1.96 µM) | 0.0625 µg/mL (≈ 0.122 µM) | 0.25 µg/mL (≈ 0.49 µM) | 0.25 µg/mL (≈ 0.49 µM) | 0.25 µg/mL (≈ 0.49 µM) | 0.25 µg/mL (≈ 0.49 µM) | 0.0625 µg/mL (≈ 0.122 µM) |
| Cc1ccccc1CON=C1CCN(CC(O)(Cn2cncn2)c2ccc(F)cc2F)CC1 (racemic) | 64 µg/mL (≈ 141 µM) | 16 µg/mL (≈ 35.1 µM) | 64 µg/mL (≈ 141 µM) | 16 µg/mL (≈ 35.1 µM) | 64 µg/mL (≈ 141 µM) | 64 µg/mL (≈ 141 µM) | 64 µg/mL (≈ 141 µM) |
| CCCc1ccc(CON=C2CCN(CC(O)(Cn3cncn3)c3ccc(F)cc3F)CC2)cc1 (racemic) | 64 µg/mL (≈ 132 µM) | 4 µg/mL (≈ 8.27 µM) | 64 µg/mL (≈ 132 µM) | 16 µg/mL (≈ 33.1 µM) | 64 µg/mL (≈ 132 µM) | 64 µg/mL (≈ 132 µM) | 16 µg/mL (≈ 33.1 µM) |
| OC(CN1CCC(=NOCc2ccccc2Cl)CC1)(Cn1cncn1)c1ccc(F)cc1F (racemic) | 1 µg/mL (≈ 2.1 µM) | 0.0625 µg/mL (≈ 0.131 µM) | 0.25 µg/mL (≈ 0.525 µM) | 0.016 µg/mL (≈ 0.0336 µM) | 0.004 µg/mL (≈ 0.0084 µM) | 0.016 µg/mL (≈ 0.0336 µM) | 0.016 µg/mL (≈ 0.0336 µM) |
| OC(Cn1cncn1)(Cn1cncn1)c1ccc(F)cc1F [FLUCONAZOLE] | > 64 µg/mL | 1 µg/mL (≈ 3.27 µM) | 1 µg/mL (≈ 3.27 µM) | 0.25 µg/mL (≈ 0.816 µM) | 0.25 µg/mL (≈ 0.816 µM) | 1 µg/mL (≈ 3.27 µM) | 0.0625 µg/mL (≈ 0.204 µM) |
| COc1ccc(CON=C2CCN(CC(O)(Cn3cncn3)c3ccc(F)cc3F)CC2)cc1 (racemic) | 64 µg/mL (≈ 136 µM) | 4 µg/mL (≈ 8.48 µM) | 4 µg/mL (≈ 8.48 µM) | 1 µg/mL (≈ 2.12 µM) | 4 µg/mL (≈ 8.48 µM) | 4 µg/mL (≈ 8.48 µM) | 4 µg/mL (≈ 8.48 µM) |
